Like-named read-outs stand apart in the source and are kept apart here.
Tests used:
Format in all cases: cell-based, Escherichia coli
EKO-35-Pore = assay: MIC susceptibility profiling, porinated strain; details: for Fold changes of MICs: EKO-35-Pore compared to EKO-35-Pore (reference); for MIC: Escherichia coli, technical duplicate
Outline: (§1)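 MIC values come from background-corrected OD600 readings (pre-incubation OD subtracted) after 18 h at 37 °C and 900 rpm in MHB II. Compounds were tested in duplicate as 2-fold dilutions. The inoculum came from 18 h LB cultures adjusted to OD600 ~1.0 and diluted 1/2000, and the pore-bearing strains were vancomycin-checked beforehand.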

ΔtolC-Pore = assay: microbe, parasite or virus in culture; details: for MIC: Escherichia coli, 18 h, read-out: Minimum inhibitory concentration, ΔtolC-Pore; for Minimum inhibitory concentration (MIC), Pore ΔtolC: Table 10, with pore, technical duplicate
Outline: as §1

wild-type (WT) K-12-Pore = assay: microbe, parasite or virus in culture; details: Escherichia coli, technical duplicate
Outline: as §1

EKO-35 araC::acrEF Pore = assay: MIC susceptibility profiling, porinated efflux platform; details: for Fold changes of MICs: EKO-35 araC::acrEF Pore compared to EKO-35-Pore; for MIC: Escherichia coli, Table 14A, porinated, technical duplicate, read-out: Minimum inhibitory concentration, EKO-35 araC::acrEF Pore
Outline: as §1

[1] = tested on: EKO-35 araC::acrBD408A Pore; assay: as above; details: for Fold changes of MICs: EKO-35 araC::acrBD408A Pore compared to EKO-35-Pore; for MIC: Escherichia coli, EKO-35 araC::acrBD408A Pore, technical duplicate, read-out: Minimum inhibitory concentration
Outline: as §1

EKO-35 araC::acrD Pore = assay: as above; details: for Fold changes of MICs: EKO-35 araC::acrD Pore compared to EKO-35-Pore; for MIC: Escherichia coli, Table 14A, porinated, technical duplicate, read-out: Minimum inhibitory concentration, EKO-35 araC::acrD Pore
Outline: as §1

EKO-35 araC::acrB Pore = assay: as above; details: for Fold changes of MICs: EKO-35 araC::acr-B Pore compared to EKO-35-Pore
Outline: as §1

EKO-35 araC::emrAB Pore = assay: as above; details: for Fold changes of MICs: EKO-35 araC::emrAB Pore compared to EKO-35-Pore; for MIC: Escherichia coli, EKO-35 araC::emrAB Pore, technical duplicate, read-out: Minimum inhibitory concentration
Outline: as §1

EKO-35 araC::emrKY = assay: MIC susceptibility profiling, efflux platform; details: for MIC: Escherichia coli, Table 13B, non-porinated, technical duplicate, read-out: Minimum Inhibitory Concentration, EKO-35 araC::emrKY
Outline: (§2)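 LB o/n 37 °C → PBS pH 7.4, OD600 ~1.0 → 1/2000 in MHB II; 2-fold cmpd series, duplicate, DMSO ctrl; 18 h 37 °C, 900 rpm; OD600 post minus pre.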

EKO-35 araC::acrEF = assay: MIC susceptibility profiling, efflux platform; details: for Fold change of MICs: EKO-35 araC::acrEF compared to EKO-35
Outline: as §2

EKO-35 araC::emrAB = assay: MIC susceptibility profiling, efflux platform; details: for Fold change of MICs: EKO-35 araC::emrAB compared to EKO-35; for MIC: Escherichia coli, Table 13B, non-porinated, technical duplicate, read-out: Minimum Inhibitory Concentration, EKO-35 araC::emrAB
Outline: as §2

EKO-35 araC::acrD = assay: MIC susceptibility profiling, efflux platform; details: for Fold change of MICs: EKO-35 araC::acrD compared to EKO-35; for MIC: Escherichia coli, Table 13A, non-porinated, technical duplicate, read-out: Minimum Inhibitory Concentration, EKO-35 araC::acrD
Outline: as §2

EKO-35 araC::mdtBC = assay: MIC susceptibility profiling, efflux platform; details: for Fold change of MICs: EKO-35 araC::mdtBC compared to EKO-35; for MIC: Escherichia coli, Table 13B, non-porinated, technical duplicate, read-out: Minimum Inhibitory Concentration, EKO-35 araC::mdtBC
Outline: as §2

EKO-35 araC::macAB = assay: MIC susceptibility profiling, efflux platform; details: for Fold change of MICs: EKO-35 araC::macAB compared to EKO-35; for MIC: Escherichia coli, Table 13B, non-porinated, technical duplicate, read-out: Minimum Inhibitory Concentration, EKO-35 araC::macAB
Outline: as §2

EKO-35 araC::acrB = assay: MIC susceptibility profiling, efflux platform; details: for Fold change of MICs: EKO-35 araC::acrB compared to EKO-35
Outline: as §2

EKO-35 araC::acrBD408A = assay: MIC susceptibility profiling, efflux platform; details: for Fold change of MICs: EKO-35 araC::acrBD408A compared to EKO-35; for MIC: Escherichia coli, Table 13B, non-porinated, technical duplicate, read-out: Minimum Inhibitory Concentration, EKO-35 araC::acrBD408A
Outline: as §2

[2] = tested on: EKO-35 araC::mexCD (MexCD from P. aeruginosa); assay: MIC susceptibility profiling, efflux platform; details: for Fold change of MICs: EKO-35 araC::mexCD compared to EKO-35; for MIC: Table 13B, non-porinated, technical duplicate, read-out: Minimum Inhibitory Concentration, EKO-35 araC::mexCD
Outline: as §2

EKO-35 araC::mdtEF = assay: MIC susceptibility profiling, efflux platform; details: for Fold change of MICs: EKO-35 araC::mdtEF compared to EKO-35; for MIC: Escherichia coli, Table 13A, non-porinated, technical duplicate, read-out: Minimum Inhibitory Concentration, EKO-35 araC::mdtEF
Outline: as §2

[3] = Table 10, with pore, read-out: Minimum inhibitory concentration (MIC), Pore EKO-35
[4] = Table 14A, porinated, read-out: Minimum inhibitory concentration, EKO-35-Pore
[5] = Table 10, with pore, read-out: Minimum inhibitory concentration (MIC), Pore K-12
[6] = Table 14A, porinated, read-out: Minimum inhibitory concentration, K-12 (WT)-Pore

Row | Compound | Fold changes of MICs (EKO-35-Pore) | MIC (EKO-35-Pore; [3]) | MIC (EKO-35-Pore; [4]) | MIC (ΔtolC-Pore) | Minimum inhibitory concentration (MIC), Pore ΔtolC (ΔtolC-Pore) | MIC (wild-type (WT) K-12-Pore; [5]) | MIC (wild-type (WT) K-12-Pore; [6]) | Fold changes of MICs (EKO-35 araC::acrEF Pore) | MIC (EKO-35 araC::acrEF Pore) | Fold changes of MICs [1] | MIC [1] | Fold changes of MICs (EKO-35 araC::acrD Pore) | MIC (EKO-35 araC::acrD Pore) | Fold changes of MICs (EKO-35 araC::acrB Pore) | Fold changes of MICs (EKO-35 araC::emrAB Pore) | MIC (EKO-35 araC::emrAB Pore) | MIC (EKO-35 araC::emrKY) | Fold change of MICs (EKO-35 araC::acrEF) | Fold change of MICs (EKO-35 araC::emrAB) | MIC (EKO-35 araC::emrAB) | further results
1 | [H]/N=C(\N/C(=N/[H])NCCCCCCNC(=N)NC(=N)Nc1ccc(Cl)cc1)Nc1ccc(Cl)cc1 [Chlorhexidine] | 1 fold | 0.391 µg/mL | 0.391 µg/mL | 0.391 µg/mL | 0.391 µg/mL | 0.781 µg/mL | 0.781 µg/mL | 1 fold | 0.391 µg/mL | 1 fold | 0.391 µg/mL | 1 fold | 0.391 µg/mL | 1 fold | 1 fold | 0.391 µg/mL | 0.391 µg/mL | 1 fold | 1 fold | 0.391 µg/mL | MIC (EKO-35 araC::acrB Pore; Escherichia coli, Table 14A, porinated, technical duplicate, read-out: Minimum inhibitory concentration, EKO-35 araC::acrB Pore): 0.391 µg/mL; Fold change of MICs (EKO-35 araC::emrKY; EKO-35 araC::emrKY compared to EKO-35): 1 fold; MIC (EKO-35 araC::acrEF; Escherichia coli, Table 13A, non-porinated, technical duplicate, read-out: Minimum Inhibitory Concentration, EKO-35 araC::acrEF): 0.391 µg/mL; Fold change of MICs (EKO-35 araC::acrD): 1 fold; MIC (EKO-35 araC::acrD): 0.391 µg/mL; Fold change of MICs (EKO-35 araC::mdtBC): 1 fold; MIC (EKO-35 araC::mdtBC): 0.391 µg/mL; Fold change of MICs (EKO-35 araC::macAB): 1 fold; MIC (EKO-35 araC::macAB): 0.391 µg/mL; Fold change of MICs (EKO-35 araC::acrB): 1 fold; MIC (EKO-35 araC::acrB; Escherichia coli, Table 13A, non-porinated, technical duplicate, read-out: Minimum Inhibitory Concentration, EKO-35 araC::acrB): 0.391 µg/mL; Fold change of MICs (EKO-35 araC::acrBD408A): 1 fold; MIC (EKO-35 araC::acrBD408A): 0.391 µg/mL; Fold change of MICs [2]: 1 fold; MIC [2]: 0.391 µg/mL; Fold change of MICs (EKO-35 araC::mdtEF): 1 fold; MIC (EKO-35 araC::mdtEF): 0.391 µg/mL
2 | CCn1cc(C(=O)O)c(=O)c2cc(F)c(N3CCNCC3)cc21 [norfloxacin] | 1 fold | 0.01 µg/mL | 0.01 µg/mL | 0.01 µg/mL | 0.010 µg/mL | 0.078 µg/mL | 0.078 µg/mL | 4 fold | 0.039 µg/mL | 2 fold | 0.02 µg/mL | 2 fold | 0.02 µg/mL | 8 fold | 2 fold | 0.02 µg/mL | 0.01 µg/mL | 4 fold | 1 fold | 0.02 µg/mL | Fold change of MICs (EKO-35 araC::acrD): 1 fold; MIC (EKO-35 araC::acrD): 0.02 µg/mL; Fold change of MICs (EKO-35 araC::mdtBC): 1 fold; MIC (EKO-35 araC::mdtBC): 0.02 µg/mL; Fold change of MICs (EKO-35 araC::macAB): 1 fold; MIC (EKO-35 araC::macAB): 0.02 µg/mL; Fold change of MICs (EKO-35 araC::acrB): 4 fold; Fold change of MICs (EKO-35 araC::acrBD408A): 1 fold; MIC (EKO-35 araC::acrBD408A): 0.02 µg/mL; Fold change of MICs [2]: 2 fold; MIC [2]: 0.039 µg/mL; Fold change of MICs (EKO-35 araC::mdtEF): 1 fold; MIC (EKO-35 araC::mdtEF): 0.02 µg/mL

From US20230407243A1, “GENETIC PLATFORM TO INVESTIGATE THE FUNCTIONS OF BACTERIAL DRUG EFFLUX PUMPS” (priority 2022, published 2023)
